Measured values as given in patent US20260184675A1, “CHIRAL ISOMERIC SULFITE COMPOUND AND APPLICATION THEREOF” (Chengdu Hanova BioSciences Co., Ltd, priority 2024, published 2026).

Columns and labels:
Type in all cases: in vivo
eggs of Thrips = experiment: Effect on hatching of eggs of Thrips, leaf disc method; details: 100 ppm; for Hatching rate (%): 5 days after insecticide delivery
Experimental: (§1) • (1) Preparation of leaf discs containing eggs: 20 female adult mites of Tetranychus cinnabarinus were transferred onto leaf discs of Vicia faba with a diameter of 2.0 cm (with wetted filter paper at the bottom), then covered it with a lidded culture dish and cultivated under moisturizing conditions, the adult mites were removed within 36 hours and microscopic examination and counting were performed on leaf discs containing eggs. • (2) Investigation of egg population base: Before pesticide soaking, a microscopic examination was conducted on the egg basic number of each leaf disc, with 2 replicates set for each treatment. • (3) Pesticide soaking treatment: The leaf butterflies loaded with mite eggs were soaked in clear water and sulfite compounds for 10 seconds, respectively, then taken out and cultivated under moisturizing conditions. Each treatment should be repeated for no less than 3 times. • (4) Cultivation and observation: The […] were cultivated under normal conditions. Five days after insecticide delivery, the hatching status of mite eggs was investigated. • Note: The temperature and humidity conditions of the constant temperature and humidity incubator after the treatment should be controlled so as to avoid excessive temperature differences, which may cause generation and dripping of condensate water in the culture dish, resulting in abnormal death of eggs due to soaking in water; it is also necessary to ensure sufficient strong ambient light, without directing irradiating the leaves. • (5) Survey of Results: The experimental materials of each treatment group were regularly hydrated and moisturized, and the hatching of eggs was observed. On the 7th day after insecticide delivery, the number of hatched eggs for each treatment was recorded, and the survey of results was recorded in the original notebook. According to the experimental requirements and characteristics of agents, the survey time can be shortened or extended.
(§2) • 1) Surveying and recording the number of hatched eggs for each treatment. • 2) Photographing and recording whether there was any pesticide damage to the leaf discs of Vicia faba. • 3) Recording the developmental status of experimental mite eggs, behavior status of nymph mites, including abnormal phenomena such as delayed or stopped development of mite eggs, difficulty in breaking hull for nymph mites, or painful struggles after hatching, etc. • (6) Calculation method: Based on the survey data, the prevention and control effect of each treatment was calculated according to the following formula, and the calculation results were kept to two decimal places.
This test adopted the method in Test Example 1 of technical section, mainly used leaf disc method to explore the inhibitory effect on hatching of eggs of Thrips by 1-(S,S), 1-(S,R), 1-(R,R), 1-(R,S), 1′-(S,S), 1′-(S,R), 1′-(R,R), 1′-(R,S), compound 1, compound 1′, S-10, R-10, S-10′, R-10′, compound 10, compound 10′, compound 19-(S,S), 19-(S,R), 19-(R,R), 19-(R,S), 19′-(S,S), 19′-(S,R), 19′-(R,R), 19′-(R,S), compound 19, and compound 19′. The concentration of all compounds was 100 ppm.

[1] = tested on: eggs of Tetranychus urticae; experiment: Effect on hatching of eggs of Tetranychus urticae, leaf disc method; details: 5 ppm; for Hatching rate (%): 5 days after insecticide delivery
Experimental: as §1, §2
This test adopted the method in Test Example 1 of technical section, mainly used leaf disc method to explore the inhibitory effect on hatching of eggs of Tetranychus urticae by compounds 1-(S,S), 1-(S,R), 1-(R,R), 1-(R,S), 1′-(S,S), 1′-(S,R), 1′-(R,R), 1′-(R,S), compound 1, compound 1′, S-10, R-10, S-10′, R-10′, compound 10, compound 10′, compound 19-(S,S), 19-(S,R), 19-(R,R), 19-(R,S), 19′-(S,S), 19′-(S,R), 19′-(R,R), 19′-(R,S), compound 19, and compound 19′. The concentration of all compounds was 5 ppm.

[2] = tested on: pest eggs of Tetranychus cinnabarinus; experiment: Effect on hatching of pest eggs of Tetranychus cinnabarinus, leaf disc method; details: for Hatching rate (%): 7 days after insecticide delivery; for inhibitory effect on the hatching of pest eggs of Tetranychus cinnabarinus (in words): 1 ppm
Experimental: as §1, with “extended. • 1) Surveying and recording the number of hatched eggs for each treatment. • 2) Photographing and recording whether there was any pesticide damage to the leaf discs of Vicia faba. • 3) Recording the developmental status of experimental mite eggs, behavior status of nymph mites, including abnormal phenomena such as delayed or stopped development of mite eggs, difficulty in breaking hull for nymph mites, or painful struggles after hatching, etc. • (6) Calculation method: Based on the survey data, the prevention and control effect of each treatment was calculated according to the following formula, and the calculation results were kept to two decimal places. [formula] [formula] [table]” for “extended.”

[3] = Replicate 1, listed as 1-(S, S)
[4] = Replicate 2, listed as 1-(S, S)
[5] = Replicate 3, listed as 1-(S, S)
[6] = Replicate 1, listed as 1′-(R, R)
[7] = Replicate 2, listed as 1′-(R, R)
[8] = Replicate 3, listed as 1′-(R, R)
[9] = Replicate 1, listed as 1′-(R, S)
[10] = Replicate 2, listed as 1′-(R, S)
[11] = Replicate 3, listed as 1′-(R, S)

Structure (SMILES) | inhibitory activity on the hatching of eggs of Thrips (in words) (eggs of Thrips) | inhibitory activity on the hatching of eggs of Tetranychus urticae (in words) [1] | Hatching rate (%) ([2]; 0.25 mg/L, Replicate 1) | Hatching rate (%) ([2]; 0.25 mg/L, Replicate 2) | Number of hatched larvae 7 days after insecticide delivery ([2]; 0.25 mg/L, Replicate 1) | Number of hatched larvae 7 days after insecticide delivery ([2]; 0.25 mg/L, Replicate 2) | Hatching rate (%) ([2]; 0.5 mg/L, Replicate 1) | Hatching rate (%) ([2]; 0.5 mg/L, Replicate 2) | Number of hatched larvae 7 days after insecticide delivery ([2]; 0.5 mg/L, Replicate 1) | Number of hatched larvae 7 days after insecticide delivery ([2]; 0.5 mg/L, Replicate 2) | Hatching rate (%) ([2]; 1 mg/L, Replicate 1) | Hatching rate (%) ([2]; 1 mg/L, Replicate 2) | Number of hatched larvae 7 days after insecticide delivery ([2]; 1 mg/L, Replicate 1) | Number of hatched larvae 7 days after insecticide delivery ([2]; 1 mg/L, Replicate 2) | inhibitory effect on the hatching of pest eggs of Tetranychus cinnabarinus (in words) [2] | other results
C[C@@H](COS(=O)OCCF)Oc1ccc(Cl)cc1Cl (stereo partly drawn) [1-(S,S)] | strong inhibitory activities | strong inhibitory activities | 50.88 | 38.98 | 28 | 36 | 0.00 | 9.72 | 70 | 65 | 0.00 | 0.00 | 75 | 68 | excellent inhibitory effects | Hatching rate (%) (eggs of Thrips; [3]): 0.00%; Hatching rate (%) (eggs of Thrips; [4]): 0.00%; Hatching rate (%) (eggs of Thrips; [5]): 0.00%; Number of hatched larvae 5 days after insecticide delivery (eggs of Thrips; [3]): 0; Number of hatched larvae 5 days after insecticide delivery (eggs of Thrips; [4]): 0; Number of hatched larvae 5 days after insecticide delivery (eggs of Thrips; [5]): 0; Hatching rate (%) [1, 3]: 0.00%; Hatching rate (%) [1, 4]: 0.00%; Number of hatched larvae 5 days after insecticide delivery [1, 3]: 0; Number of hatched larvae 5 days after insecticide delivery [1, 4]: 0
CC(COc1ccc(Cl)cc1Cl)OS(=O)OCCF [1′-(R,R)] | – | – | 69.57 | 82.22 | 14 | 8 | 36.84 | 36.51 | 36 | 40 | 25.37 | 8.00 | 50 | 69 | – | Hatching rate (%) (eggs of Thrips; [6]): 12.68%; Hatching rate (%) (eggs of Thrips; [7]): 12.79%; Hatching rate (%) (eggs of Thrips; [8]): 14.29%; Number of hatched larvae 5 days after insecticide delivery (eggs of Thrips; [6]): 18; Number of hatched larvae 5 days after insecticide delivery (eggs of Thrips; [7]): 11; Number of hatched larvae 5 days after insecticide delivery (eggs of Thrips; [8]): 15; Hatching rate (%) [1, 6]: 17.91%; Hatching rate (%) [1, 7]: 19.28%; Number of hatched larvae 5 days after insecticide delivery [1, 6]: 12; Number of hatched larvae 5 days after insecticide delivery [1, 7]: 16
CC(COc1ccc(Cl)cc1Cl)OS(=O)OCCF [1′-(R,S)] | strong inhibitory activities | strong inhibitory activities | 54.17 | 29.17 | 22 | 68 | 1.25 | 5.00 | 79 | 76 | 0.00 | 0.00 | 62 | 42 | excellent inhibitory effects | Hatching rate (%) (eggs of Thrips; [9]): 0.00%; Hatching rate (%) (eggs of Thrips; [10]): 0.00%; Hatching rate (%) (eggs of Thrips; [11]): 0.00%; Number of hatched larvae 5 days after insecticide delivery (eggs of Thrips; [9]): 0; Number of hatched larvae 5 days after insecticide delivery (eggs of Thrips; [10]): 0; Number of hatched larvae 5 days after insecticide delivery (eggs of Thrips; [11]): 0; Hatching rate (%) [1, 9]: 0.00%; Hatching rate (%) [1, 10]: 0.00%; Number of hatched larvae 5 days after insecticide delivery [1, 9]: 0; Number of hatched larvae 5 days after insecticide delivery [1, 10]: 0
